# Experiments:
# [1] = tested on: HEK293 CMV-Luciferase cells; experiment: Cell viability (Hoechst staining) in HEK293 CMV-Luciferase cells
# Procedure: Assays were conducted for percent luminescence and cell viability (Hoechst-staining) after a 2-day incubation under the following conditions. As negative controls pure DMSO and “mock” conditions (where nothing is added to the cells) were used.
# [2] = tested on: PU.1 dependent gene expression; experiment: RT-qPCR of mRNA levels in BV2 PU.1-Luciferase cells (validation round 3); assay type: cell-based, mouse; settings: 2-day treatment
# [3] = tested on: HEK293 CMV-Luciferase cells; experiment: Luminescence in HEK293 CMV-Luciferase control line (luciferase quencher counter-screen); assay type: cell-based
# Source text: The IACS Selleck Known Bioactive library (2,100 compounds) was screened and there 35 hits were identified (˜1.7% hit rate), the Asinex1 library (12,000 compounds) was screened and 60 hits were identified (˜0.5% hit rate), and the ChemDiv6 library (44,000 compounds) was screened and 169 hits were identified (˜0.4% hit rate). The Selleck library contains drugs approved by the United States Food and Drug Administration (FDA) with known intracellular mechanisms of action which will give instant insight into pathways that block PU.1 activity. The Asinex1 and ChemDiv6 libraries contain molecules with unknown biological properties, but with low toxicity, high stability, and a broad structural diversity used to generate structure-activity-relationships (SAR) of the PU.1 inhibitors. SAR is used to design new drug libraries containing only molecules with similar structures as previous hits. In order to obtain the SAR, three rounds of validation were performed. In round 1, false-positive, non-specific luciferase quencher molecules were excluded using the commercially available HEK293 CMV-Luciferase line that constitutively expresses luciferase under the CMV promoter. In round 2, weak (non-significant) hits were eliminated according to degree of PU.1 inhibition in the absence of cell death. In round 3, drugs were selected that reduce PU.1-dependent gene expression with RT-qPCR.
# PU.1 [4] = molecular target: T1, PU.1 (Mus musculus, UniProt P17433); experiment: Luciferase assay (luminescence) in BV2 PU.1-Luciferase reporter cells; assay type: cell-based; settings: BV2 PU.1-Luciferase line, 2-day incubation; 119113 10 μM, DB2313 2.5 μM
# T1 construct: endogenous in cells; host or cells: BV2 PU.1-Luciferase (mouse microglial BV2 with a 5xLBB-luciferase reporter integrated at ROSA26)
# PU.1 [5] = molecular target: T1, PU.1; experiment: as above; assay type: cell-based; settings: BV2 PU.1-Luciferase cells, 1 μM
# [6] = HEK293 CMV-Luciferase cell line, 1 μM
structure (smiles),measurement,setting,value
"CC(C)N=C(N)c1ccc2nc(-c3ccc(OCc4cccc(COc5ccc(-c6nc7ccc(C(N)=NC(C)C)cc7[nH]6)cc5)c4F)cc3)[nH]c2c1 [DB2313, reference compound]",cell viability (Hoechst) (FIG. 2D),[1]; [6],only in the BV2 PU.1-Luciferase line
same,cell viability (Hoechst-staining),"[1]; HEK293 CMV-Luciferase line, 2-day incubation, actinomycin D, puromycin, 119113 10 μM, DB2313 2.5 μM",no effect
same,mRNA levels Apoe,[2],0.600 multiples of 1×
same,mRNA levels IL1β,[2],0.460 multiples of 1×
same,mRNA levels Lucif.,[2],0.340 multiples of 1×
same,mRNA levels Spi1,[2],0.820 multiples of 1×
same,mRNA levels Trem2,[2],1.030 multiples of 1×
same,mRNA levels Tyrobp,[2],1.030 multiples of 1×
same,luminescence (FIG. 2D),[3]; [6],only in the BV2 PU.1-Luciferase line
same,percent luminescence,"[3]; HEK293 CMV-Luciferase line, 2-day incubation, 119113 10 μM, DB2313 2.5 μM",no effect
same,percent luminescence,PU.1 [4],reduction in luminescence
same,luminescence (FIG. 2D),PU.1 [5],reduced luminescence

# Source: patent US20220340983A1, “SYSTEMS AND ASSAYS FOR IDENTIFYING PU.1 INHIBITORS” (Massachustts Institute of Technology, priority 2019, published 2022)
